The source of these data is PMC6346587, “Glucose 6-phosphate dehydrogenase 6-phosphogluconolactonase: characterization of the Plasmodium vivax enzyme and inhibitor studies” (Malaria Journal, 2019).

Where “and” joins values, the source holds several entries; their conditions need not be identical. Equal values may be shown once. A value given as a limit tells only on which side of the number the result lay.

For one data set, the system named is P. falciparum Dd2. On the set-up: method as in PMID 24501782. As to conditions: CQ resistant strain; cited from earlier work.
The target in another data set is T1, hG6PD (Homo sapiens, UniProt P11413).
T1 construct: made in house
The note with it: ML304; read-out: IC50 on human G6PD; cited from earlier work.

Data set [1] concerns human hepatocyte cell lines. On the set-up: method as in PMID 24501782. As to conditions: cited from earlier work.
For data set [2], the system named is cytosolic H2O2 levels of NF54-attB. On the set-up: method as in PMID 28874682. As to conditions: roGFP2-Orp1 probe, NF54-attB blood stages; cited from earlier work.
The next data set concerns the target T2, recombinant hGrx1-roGFP2 (Homo sapiens, UniProt P35754).
T2 construct: made in house
The data set can be described thus: In vitro interaction with recombinant hGrx1-roGFP2 probe. The format is biochemical. The note with it: at the concentrations used in this study. The method, then: The sensor hGrx1–roGFP2 (human glutaredoxin 1-reduction–oxidation sensitive green fluorescent protein 2) was recently transiently expressed in 3D7 P. falciparum parasites by using the pARL1a(+) expression vector. Heterologous overexpression of hGrx1–roGFP2 for the evaluation of the in vitro interactions of ML304 and anti-malarial drugs with the recombinant redox probe was performed according to [35].
ML304 was used at concentrations of 10 nM to 1 mM in degassed standard reaction buffer (100 mM potassium phosphate, 1 mM EDTA, pH 7.0). […] The characterization of the in vitro interaction of hGrx1–roGFP2 with ML304 was performed according to Schuh et al..

Another data set addresses T3, PfGluPho (Plasmodium falciparum, UniProt Q8IKU0).
T3 construct: made in house
T3 sequence (Q8IKU0 1-910): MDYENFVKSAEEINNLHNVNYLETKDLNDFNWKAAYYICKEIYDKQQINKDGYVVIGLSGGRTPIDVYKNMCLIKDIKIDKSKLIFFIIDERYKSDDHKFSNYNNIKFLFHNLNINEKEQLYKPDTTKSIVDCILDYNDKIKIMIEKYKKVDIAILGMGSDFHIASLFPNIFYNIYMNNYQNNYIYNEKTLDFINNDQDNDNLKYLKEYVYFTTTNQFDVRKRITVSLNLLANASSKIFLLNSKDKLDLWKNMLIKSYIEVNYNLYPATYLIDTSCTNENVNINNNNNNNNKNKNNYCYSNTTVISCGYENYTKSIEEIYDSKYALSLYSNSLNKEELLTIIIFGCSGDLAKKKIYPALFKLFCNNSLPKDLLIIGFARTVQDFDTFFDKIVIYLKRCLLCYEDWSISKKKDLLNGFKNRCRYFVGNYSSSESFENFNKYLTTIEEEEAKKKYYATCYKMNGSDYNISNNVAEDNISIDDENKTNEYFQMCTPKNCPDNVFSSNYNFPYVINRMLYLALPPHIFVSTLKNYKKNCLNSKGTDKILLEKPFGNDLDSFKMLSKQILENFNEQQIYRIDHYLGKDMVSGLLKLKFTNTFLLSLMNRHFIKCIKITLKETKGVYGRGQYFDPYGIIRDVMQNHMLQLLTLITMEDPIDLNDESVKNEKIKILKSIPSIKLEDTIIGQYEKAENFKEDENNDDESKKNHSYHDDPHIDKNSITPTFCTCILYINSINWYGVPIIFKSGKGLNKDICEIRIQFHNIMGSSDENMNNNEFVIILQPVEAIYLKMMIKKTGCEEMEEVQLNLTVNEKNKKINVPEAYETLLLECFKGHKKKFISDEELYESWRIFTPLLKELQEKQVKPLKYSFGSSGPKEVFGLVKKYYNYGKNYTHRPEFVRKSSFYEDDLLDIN
As to conditions: ML304; read-out: IC50 on PfGluPho; cited from earlier work.

Data set [3] deals with P. falciparum 3D7. As to conditions: chloroquine-sensitive strain; cited from earlier work.
Data set [4] has as its system P. falciparum NF54[hGrx1-roGFP2] glutathione redox ratio. The data set can be described thus: Cytosolic glutathione redox sensor hGrx1-roGFP2, fluorescence plate reader. Format: cell-based, Plasmodium falciparum. The method, then: NF54^[hGrx1–roGFP2] parasites were washed and resuspended after incubation in pre-warmed Ringer’s solution to a concentration of […]. 10 µL of cells (1 × 10^6 iRBCs) were transferred to each well of a 384-well plate (black, flat bottom, Greiner Bio-One, Frickenhausen, Germany) and were measured with the plate reader Clariostar (BMG Labtech, Ortenberg, Germany) with excitation wavelengths at 405 nm and 475 nm (emission 510 nm). The gain of the 405 nm and 475 nm excitation wavelengths was adjusted to match the full dynamic range of the hGrx1–roGFP2 redox sensor. The 405/475 nm ratio was then calculated. The graphs were plotted using the GraphPad Prism 5 software (San Diego, CA, USA). A one-way ANOVA test with 95% confidence intervals with the Dunnett’s multiple comparison test (GraphPad Prism 5.0) was applied for statistical analysis of significance (*p < 0.05; **p < 0.01; ***p < 0.001).
Recently, the cytosolic glutathione redox sensor was stably integrated into NF54-attB parasites. The direct response of NF54^[hGrx1–roGFP2] to mid- and long-term exposures were determined using the time-efficient plate reader (Clariostar). […] As depicted in Fig. 7, ML304 oxidized the cytosol, leading to an increase of the 405/488 nm ratio of the probe in a concentration-dependent manner with significant differences after a 24 h incubation.

For another data set, the system named is Plasmodium gametocytes. The note with it: cited from earlier work.
For data set [5], the system named is P. falciparum 3D7. The data set can be described thus: [3H]-hypoxanthine incorporation assay on asexual blood stages. As to conditions: 72 h [3H]-hypoxanthine incorporation assay. Format: cell-based, Plasmodium falciparum.

A word on the IC50: it is the concentration that inhibits the measured activity by half. For orientation: EC50 means the concentration that produces a half-maximal response.

T1 sequence (P11413 whole entry): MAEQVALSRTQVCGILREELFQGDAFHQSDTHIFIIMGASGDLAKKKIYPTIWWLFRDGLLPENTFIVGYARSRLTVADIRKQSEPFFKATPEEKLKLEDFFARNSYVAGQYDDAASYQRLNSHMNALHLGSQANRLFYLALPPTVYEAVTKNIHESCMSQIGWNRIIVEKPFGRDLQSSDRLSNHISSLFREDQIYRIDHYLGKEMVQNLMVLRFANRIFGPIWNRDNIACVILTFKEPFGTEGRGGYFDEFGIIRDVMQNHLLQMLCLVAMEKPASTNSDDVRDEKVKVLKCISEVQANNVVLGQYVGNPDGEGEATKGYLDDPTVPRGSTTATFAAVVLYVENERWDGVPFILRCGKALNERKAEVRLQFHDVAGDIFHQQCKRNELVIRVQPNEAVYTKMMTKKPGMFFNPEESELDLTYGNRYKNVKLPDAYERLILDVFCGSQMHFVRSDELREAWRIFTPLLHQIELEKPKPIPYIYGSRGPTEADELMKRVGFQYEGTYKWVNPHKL

For `CCN1CCC[C@@H]1CNC(=O)c1ccc2c(c1)NC(=O)c1cccc(C)c1S2` [ML304], the “Active concentration on P. falciparum Dd2 in cell culture” value in the data set with P. falciparum Dd2 was “about 5 µM”. Moreover, the IC50 on hG6PD was 80000 nM and > 80000 nM; on PfGluPho, 190 nM. In addition, the “LD50 against human hepatocyte cell lines” value in data set [1] was above 50 µM. Further, the “Effect on cytosolic H2O2 levels” value in [2] is “significantly increase”. Further, the “Direct interaction with recombinantly purified hGrx1-roGFP2 probe” value on recombinant hGrx1-roGFP2 is given as “excluded a direct interaction”. Moreover, the “Active concentration on P. falciparum 3D7 in cell culture” value with P. falciparum 3D7 [3] is “lower than 1 µM”. For the same molecule, in data set [4] (8.88 µM, 24 h, ring stage, p < 0.01), the “Increase of 405/475 nm fluorescence ratio” value is “threefold”. Moreover, the “Effect on fluorescence ratio” value in [4] (4 h incubation, trophozoite stage, 1 to 100 times EC50) is “concentration-dependent increase in fluorescence ratio”. Moreover, in the data set on Plasmodium gametocytes, the “Effect on viability of Plasmodium gametocytes” value is on record as “strongly impair the viability”. For the same molecule, the “Interaction with methylene blue on late stage gametocytes” value in the data set on Plasmodium gametocytes is on record as “synergistic effects”. A half-maximal effect with P. falciparum 3D7 [5] (EC50) was put at 471 ± 39.5 nM.
